Results published in ChEMBL document CHEMBL3112580, “A new face for old antibiotics: tetracyclines in treatment of amyloidoses” (2013).

What was measured:
Homo sapiens = species on record: Homo sapiens; assay: Antiprion activity at scrapie prion protein in human brain at 1 mM after 1 hr by Western blotting analysis; type: tissue-based
Mus musculus [1] = assay: Antiamyloidogenic activity in CMV-lambda6 mouse harboring human lambda LC protein at 0.5 mg/ml administered in drinking water for 3 to 6 months by Congo red staining-based microscopy; type: functional
Mus musculus [2] = species on record: Mus musculus; assay: Antiamyloidogenic activity in R6/2 mouse Huntington's disease model assessed as increase in survival rate relative to control; type: functional
Mus musculus [3] = species on record: Mus musculus; assay: Antiamyloidogenic activity in mouse transfected with human amylin/amyloid polypeptide assessed as increase in survival time relative to control; type: functional

C[C@H]1c2cccc(O)c2C(=O)C2=C(O)[C@]3(O)C(=O)C(C(N)=O)=C(O)[C@@H](N(C)C)[C@@H]3[C@@H](O)[C@@H]21.O [DOXYCYCLINE]
Activity (Homo sapiens): 80%
Activity (Mus musculus [1]): 23%

CN(C)c1ccc(O)c2c1C[C@H]1C[C@H]3[C@H](N(C)C)C(O)=C(C(N)=O)C(=O)[C@@]3(O)C(O)=C1C2=O [MINOCYCLINE]
Survival (Mus musculus [2]): 14%

CN(C)[C@@H]1C(O)=C(C(N)=O)C(=O)[C@@]2(O)C(O)=C3C(=O)c4c(O)cccc4[C@@](C)(O)[C@H]3C[C@@H]12 [TETRACYCLINE]
Survival (Mus musculus [3]): 254%
